Data: US12077503B2, “Substituted cyclic amides and their use as herbicides” (FMC CORPORATION, priority 2015, dated 2024)

Tests used:
Format in all cases: in vivo
Kochia (Kochia scoparia) = assay: Test A postemergence; conditions: Bassia scoparia, post-emergence, 240 h, postemergence; for pest or weed control at 125 g/ha: 125 g ai/ha, visual injury vs untreated controls after approx. 10 d, 0 = no effect, 100 = complete control, read-out: Kochia plant response rating (0 to 100 scale); for pest or weed control at 500 g/ha: 500 g ai/ha, 0 to 100 scale, 0 is no effect, 100 is complete control, read-out: Kochia plant response rating
Summary of the method: (§1)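 Visual injury, scored on a 0–100 scale relative to untreated controls, was recorded about 10 d after application. Treatments were a preemergence soil spray over planted seeds or a postemergence spray on plants at the one- to two-leaf stage, 2 to 10 cm tall, all in loam soil–sand blend in the greenhouse.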

corn (Zea mays) = assay: Test A postemergence; conditions: Zea mays, post-emergence, 240 h, postemergence; for plant injury at 125 g/ha: 125 g ai/ha, visual injury vs untreated controls after approx. 10 d, 0 = no effect, 100 = complete control, read-out: Corn plant response rating (0 to 100 scale); for plant injury at 500 g/ha: 500 g ai/ha, 0 to 100 scale, 0 is no effect, 100 is complete control, read-out: Corn plant response rating
Summary of the method: as §1

[1] = tested on: giant foxtail (Setaria faberii); assay: Test A postemergence; conditions: Setaria faberi, post-emergence, 240 h, postemergence; for pest or weed control at 125 g/ha: 125 g ai/ha, visual injury vs untreated controls after approx. 10 d, 0 = no effect, 100 = complete control, read-out: Foxtail, Giant plant response rating (0 to 100 scale); for pest or weed control at 500 g/ha: 500 g ai/ha, 0 to 100 scale, 0 is no effect, 100 is complete control, read-out: Foxtail, Giant plant response rating
Summary of the method: as §1

[2] = tested on: pigweed (Amaranthus retroflexus); assay: Test A postemergence; conditions: Amaranthus retroflexus, post-emergence, 240 h, postemergence; for pest or weed control at 125 g/ha: 125 g ai/ha, visual injury vs untreated controls after approx. 10 d, 0 = no effect, 100 = complete control, read-out: Pigweed plant response rating (0 to 100 scale); for pest or weed control at 500 g/ha: 500 g ai/ha, 0 to 100 scale, 0 is no effect, 100 is complete control, read-out: Pigweed plant response rating
Summary of the method: as §1

[3] = tested on: ragweed (common ragweed, Ambrosia elatior); assay: Test A postemergence; conditions: Ambrosia artemisiifolia, post-emergence, 240 h, postemergence; for pest or weed control at 125 g/ha: 125 g ai/ha, visual injury vs untreated controls after approx. 10 d, 0 = no effect, 100 = complete control, read-out: Ragweed plant response rating (0 to 100 scale); for pest or weed control at 500 g/ha: 500 g ai/ha, 0 to 100 scale, 0 is no effect, 100 is complete control, read-out: Ragweed plant response rating
Summary of the method: as §1

[4] = tested on: ryegrass, Italian (Italian ryegrass, Lolium multiflorum); assay: Test A postemergence; conditions: Lolium multiflorum, post-emergence, 240 h, postemergence; for pest or weed control at 125 g/ha: 125 g ai/ha, visual injury vs untreated controls after approx. 10 d, 0 = no effect, 100 = complete control, read-out: Ryegrass, Italian plant response rating (0 to 100 scale); for pest or weed control at 500 g/ha: 500 g ai/ha, 0 to 100 scale, 0 is no effect, 100 is complete control, read-out: Ryegrass, Italian plant response rating
Summary of the method: as §1

[5] = tested on: blackgrass (Alopecurus myosuroides); assay: Test A postemergence; conditions: Alopecurus myosuroides, post-emergence, 240 h, postemergence; for pest or weed control at 125 g/ha: 125 g ai/ha, visual injury vs untreated controls after approx. 10 d, 0 = no effect, 100 = complete control, read-out: Blackgrass plant response rating (0 to 100 scale); for pest or weed control at 500 g/ha: 500 g ai/ha, 0 to 100 scale, 0 is no effect, 100 is complete control, read-out: Blackgrass plant response rating
Summary of the method: as §1

[6] = tested on: barnyardgrass (Echinochloa crus-galli); assay: Test A postemergence; conditions: Echinochloa crus-galli, post-emergence, 240 h, postemergence; for pest or weed control at 125 g/ha: 125 g ai/ha, visual injury vs untreated controls after approx. 10 d, 0 = no effect, 100 = complete control, read-out: Barnyardgrass plant response rating (0 to 100 scale); for pest or weed control at 500 g/ha: 500 g ai/ha, 0 to 100 scale, 0 is no effect, 100 is complete control, read-out: Barnyardgrass plant response rating
Summary of the method: as §1

[7] = tested on: wheat (Triticum aestivum); assay: Test A postemergence; conditions: Triticum aestivum, post-emergence, 240 h, postemergence; for plant injury at 125 g/ha: 125 g ai/ha, visual injury vs untreated controls after approx. 10 d, 0 = no effect, 100 = complete control, read-out: Wheat plant response rating (0 to 100 scale); for plant injury at 500 g/ha: 500 g ai/ha, 0 to 100 scale, 0 is no effect, 100 is complete control, read-out: Wheat plant response rating
Summary of the method: as §1

[8] = tested on: Galium (catchweed bedstraw, Galium aparine); assay: Test A postemergence; conditions: Galium, post-emergence, 240 h, postemergence; for pest or weed control at 125 g/ha: 125 g ai/ha, visual injury vs untreated controls after approx. 10 d, 0 = no effect, 100 = complete control, read-out: Galium plant response rating (0 to 100 scale); for pest or weed control at 500 g/ha: 500 g ai/ha, 0 to 100 scale, 0 is no effect, 100 is complete control, read-out: Galium plant response rating
Summary of the method: as §1

[9] = tested on: ducksalad (Heteranthera limosa); assay: Test B flooded paddy test; conditions: Heteranthera limosa, 250 g ai/ha, Flood; 0 to 100 scale where 0 is no effect and 100 is complete control; read-out: Ducksalad plant response rating
Summary of the method: (§2)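 Response scored visually against untreated controls, 0 = no effect and 100 = complete control, 13–15 d after treatment in the greenhouse. Compounds added to paddy water held 3 cm above soil surface. Treatment given at 2-leaf stage.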

[10] = tested on: sedge, umbrella (small-flower umbrella sedge, Cyperus difformis); assay: Test B flooded paddy test; conditions: Cyperus difformis, 250 g ai/ha, Flood; 0 to 100 scale where 0 is no effect and 100 is complete control; read-out: Sedge, Umbrella plant response rating
Summary of the method: as §2

rice (Oryra sativa) = assay: Test B flooded paddy test; conditions: Oryza sativa, 250 g ai/ha, Flood; 0 to 100 scale where 0 is no effect and 100 is complete control; read-out: Rice plant response rating
Summary of the method: as §2

[11] = tested on: barnyardgrass (Echinochloa crus-galli); assay: Test B flooded paddy test; conditions: Echinochloa crus-galli, 250 g ai/ha, Flood; 0 to 100 scale where 0 is no effect and 100 is complete control; read-out: Barnyardgrass plant response rating
Summary of the method: as §2

[12] = tested on: barnyardgrass (Echinochloa crus-galli); assay: Test A preemergence; conditions: Echinochloa crus-galli, pre-emergence, 240 h, preemergence, 0 to 100 scale where 0 is no effect and 100 is complete control, read-out: Barnyardgrass plant response rating; for pest or weed control at 125 g/ha: 125 g ai/ha, visual injury rating, approximately 10 d; for pest or weed control at 500 g/ha: 500 g ai/ha
Summary of the method: as §1

| Structure (SMILES) | pest or weed control at 125 g/ha (Kochia (Kochia scoparia)) [%] | pest or weed control at 500 g/ha (Kochia (Kochia scoparia)) [%] | plant injury at 125 g/ha (corn (Zea mays)) [%] | plant injury at 500 g/ha (corn (Zea mays)) [%] | pest or weed control at 125 g/ha [1] [%] | pest or weed control at 500 g/ha [1] [%] | pest or weed control at 125 g/ha [2] [%] | pest or weed control at 500 g/ha [2] [%] | pest or weed control at 125 g/ha [3] [%] | pest or weed control at 500 g/ha [3] [%] | pest or weed control at 125 g/ha [4] [%] | pest or weed control at 500 g/ha [4] [%] | pest or weed control at 125 g/ha [5] [%] | pest or weed control at 500 g/ha [5] [%] | pest or weed control at 125 g/ha [6] [%] | pest or weed control at 500 g/ha [6] [%] | plant injury at 125 g/ha [7] [%] | pest or weed control at 125 g/ha [8] [%] | pest or weed control at 500 g/ha [8] [%] | pest or weed control at 250 g/ha [9] [%] | other results |
| --- | --- | --- | --- | --- | --- | --- | --- | --- | --- | --- | --- | --- | --- | --- | --- | --- | --- | --- | --- | --- | --- |
| Cc1cc([C@H]2CN(C)C(=O)[C@@H]2C(=O)Nc2ccccc2F)on1 [Compound 1195] | 0 | 0 | 0 | 0 | 0 | 20 | 0 | 0 | 0 | 0 | 0 | 0 | 0 | 0 | 0 | 20 | 0 | 0 | 0 | 0 | plant injury at 500 g/ha [7]: 0%; pest or weed control at 250 g/ha [10]: 0%; pest or weed control at 250 g/ha (rice (Oryra sativa)): 20%; pest or weed control at 250 g/ha [11]: 20%; pest or weed control at 125 g/ha [12]: 0%; pest or weed control at 500 g/ha [12]: 80% |
| CSc1ccccc1NC(=O)[C@H]1C(=O)N(C)C[C@@H]1c1ccc(OC(F)F)cc1 [Compound 1212] | 60 | 80 | 0 | 20 | 70 | 90 | 50 | 70 | 0 | 30 | 0 | 20 | 0 | 30 | 80 | 100 | 0 | 50 | 60 | 95 | plant injury at 500 g/ha [7]: 40%; pest or weed control at 250 g/ha [10]: 0%; pest or weed control at 250 g/ha (rice (Oryra sativa)): 0%; pest or weed control at 250 g/ha [11]: 0%; pest or weed control at 125 g/ha [12]: 80%; pest or weed control at 500 g/ha [12]: 100% |
| Cc1c(F)cccc1NC(=O)[C@H]1C(=O)N(C)C[C@@H]1c1ccc(F)cc1 [Compound 1235] | 30 | 50 | 70 | 100 | 80 | 90 | 0 | 50 | 0 | 30 | 0 | 30 | 30 | 40 | 90 | 100 | 40 | 50 | 70 | 90 | pest or weed control at 250 g/ha [10]: 75%; pest or weed control at 250 g/ha (rice (Oryra sativa)): 80%; pest or weed control at 250 g/ha [11]: 100%; pest or weed control at 125 g/ha [12]: 100%; pest or weed control at 500 g/ha [12]: 100% |
